According to patent US6337317B1, “Antimicrobial peptides and methods of use thereof” (priority 2000, dated 2002):
Where a SMILES comes first, the peptide text is derived from it.

Legend:
Human Red Blood Cells = assay: Hemolytic assay; assay type: cell-based
Description: The toxicity of invention peptides can be assessed using a hemolytic assay in which the ability of the peptides to lyse human red blood cells is assessed (Zhang et al. (1999) Biochemistry 38:8102-8111; and Examples section).
Hemolytic activity of invention peptides was tested against human red blood cells. Freshly collected human blood treated with heparin was centrifuged to remove the buffy coat, and the erythrocytes thereby obtained were washed three times in saline (0.85% NaCl). Serial dilutions of the peptides in saline were prepared in round-bottomed microtiter plates using total volumes of 100 μl. Red blood cells were diluted with saline to 1/25 of a packed cell volume, and 50 μl of cells were added to each well. Plates, while rocking, were incubated at 37° C., and the concentration of the peptide required for lysis after 4 h was taken as the minimal hemolytic concentration.

[1] = test system: intact cells of E. coli UB1005; assay: NPN uptake assay, outer membrane permeabilization; assay type: cell-based, Escherichia coli; details: peptide concentration leading to 50% of maximal increase in NPN uptake
Description: The outer membrane permeabilization activity of invention peptides was determined by the 1-N-phenylnapthylamine (NPN) uptake assay of Loh et al. ((1984) Antimicor. Agents Chemother. 26:546-551), using intact cells of E. coli UB1005.
The cytoplasmic membrane depolarization activity of the peptides was determined (Wu and Hancock (1999) J. Biol. Chem. 274:29-35) using the membrane potential sensitive dye 3,3-dipropylthiacarbocyanine diSC35 (28) and E. coli DC2. Bacterial cells in mid-log phase were centrifuged, washed in 5 mM HEPES, pH 7.8, and resuspended in the same buffer to an OD600 of 0.05. A stock solution of diSC35 was added to a final concentration of 0.4 μM and quenching was allowed to occur at room temperature for 20-30 min. Then KCl was added to the cell suspension to a final concentration of 100 mM to equilibrate the cytoplasmic and external K^+ concentrations. A 2-mL cell suspension was placed in a 1 cm cuvette and the desired concentration of tested peptide was added. Changes in fluorescence due to the disruption of the membrane potential in the cytoplasmic membrane were continuously recorded using a Perkin-Elmer model 650-10S spectrofluorimeter at an excitation wavelength of 622 nm and an emission wavelength of 670 nm. The concentration of peptide leading to a 50% of maximal increase in NPN uptake was recorded as the P50.
Therefore, an increase in fluorescence in the presence of a peptide indicates the ability of peptide to permeabilize the bacterial outer membrane.

[2] = LPS-induced endotoxemia in galactosamine-sensitized mice; assay type: in vivo; details: 200 μg peptide intraperitoneally, groups of 10 mice, up to 24 h
Description: Bacterial endotoxin (LPS) is highly toxic and can cause high mortality in both humans and animals when released during Gram-negative bacterial infection. Galactosamine-treated mice exposed to moderate does of endotoxin typically die from endotoxic shock within 17 hours following exposure. Invention peptides can be tested for their ability to protect mice against endotoxin-induced death (see Examples section). The anti-endotoxic activity of invention peptides also can be tested in an in vitro assay using a macrophage cell line (Gough et al. (1996) Infect. Immun. 64:4922-4927; and Examples section).
The ability of invention peptides to protect against LPS-induced endotoxemia was assessed in vivo. Mice (8-10 weeks old) were injected intraperitoneally with […] D-galactosamine (Dgal) to sensitize them to LPS according to the method of Galanos (Galanos et al. (1979) Proc. Natl. Acad. Sci., USA, 76:5939-5943). Endotoxic shock was induces by intraperitoneal injections of 3 μg/mL E. coli 111 :B4 LPS in phosphate-buffered saline (PBS). Invention peptides (200 μg/100 μl sterile water) were injected intraperitoneally at a separate site within 10 min of LPS injection, and survival was monitored up to 24 h following injection.

Q: Which “minimal hemolytic concentration (printed under MIC head)” value (Human Red Blood Cells; Human Red Blood Cells, lysis after 4 h at 37° C.) does the source give for `CC(C)[C@@H]1NC(=O)[C@H](CCCNC(=N)N)NC(=O)[C@H](Cc2ccccc2)NC(=O)[C@@H](NC(=O)[C@H](Cc2c[nH]c3ccccc23)NC(=O)[C@H](CCCNC(=N)N)NC(=O)[C@@H](N)CCCNC(=N)N)CSSC[C@@H](C(=O)N[C@@H](CCCNC(=N)N)C(N)=O)NC(=O)[C@H](CCCCN)NC(=O)[C@H](CCCNC(=N)N)NC(=O)[C@H](Cc2ccc(O)cc2)NC(=O)[C@@H]2CSSC[C@H](NC1=O)C(=O)N[C@@H](Cc1ccc(O)cc1)C(=O)N[C@@H](CCCNC(=N)N)C(=O)NCC(=O)N[C@@H](Cc1ccccc1)C(=O)N2` [Polyphemusin I] (HELM PEPTIDE1{R.R.W.C.F.R.V.C.Y.R.G.F.C.Y.R.K.C.R.[am]}$PEPTIDE1,PEPTIDE1,4:R3-17:R3|PEPTIDE1,PEPTIDE1,8:R3-13:R3$$$V2.0; N-terminus and C-terminus assumed) here?
A: Its value is 21.3 µg/mL.

Q: And the “hemolytic activity” value (Human Red Blood Cells; red blood cells)?
A: Its value is “show hemolytic activity”.

Q: What about the P50 [1] of the same compound?
A: Its P50 is 2.8 µg/mL.

Q: What about the “Survival (%), LPS-Endotoxemia” value [2] of the same compound?
A: Its value is 10%.
